Test results published in patent publication US8163929B2, “Dihydropyridone amides as P2X7 modulators” (Roche Palo Alto LLC, priority 2008, dated 2012).

Target: T1, P2X7 (UniProt Q99572)
T1 sequence (Q99572 1-595): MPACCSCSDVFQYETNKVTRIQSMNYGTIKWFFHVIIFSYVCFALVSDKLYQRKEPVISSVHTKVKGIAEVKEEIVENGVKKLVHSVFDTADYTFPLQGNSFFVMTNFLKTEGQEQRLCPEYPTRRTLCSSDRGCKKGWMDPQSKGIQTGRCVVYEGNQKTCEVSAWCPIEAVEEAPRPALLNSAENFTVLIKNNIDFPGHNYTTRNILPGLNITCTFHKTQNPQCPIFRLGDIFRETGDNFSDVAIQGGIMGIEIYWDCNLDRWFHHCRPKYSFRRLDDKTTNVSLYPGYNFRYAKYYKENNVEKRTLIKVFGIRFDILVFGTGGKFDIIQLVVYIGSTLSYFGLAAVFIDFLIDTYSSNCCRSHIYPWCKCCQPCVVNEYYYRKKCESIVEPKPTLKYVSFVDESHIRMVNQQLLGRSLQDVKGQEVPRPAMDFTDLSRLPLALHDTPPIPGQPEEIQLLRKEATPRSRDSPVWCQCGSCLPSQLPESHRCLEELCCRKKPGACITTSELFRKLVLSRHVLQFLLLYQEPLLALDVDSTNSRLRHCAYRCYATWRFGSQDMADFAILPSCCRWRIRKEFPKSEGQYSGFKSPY
Test: P2X7 activity of Table 1
Type: cell-based
Conditions: pIC50 values for P2X7
In short: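 FLIPR calcium flux with fluo-3 in 1321N1 cells expressing human P2X7 and HEK293 cells expressing rat P2X7, in HBSS with 2 mM CaCl2 and 2.5 mM probenecid. Antagonist pre-incubated 20 min at room temperature, then BzATP added (100 μM human, 5 μM rat). Peak response over 5 min normalised to 5 μM ionomycin.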

Structure (SMILES)	pIC50
Cc1cc(F)c(-c2ccnn(C)c2=O)cc1NC(=O)C1=CN(C)C(=O)C[C@H]1c1ccc(F)cc1 [Compound 130, (S)-4-(4-Fluoro-phenyl)-1-methyl-6-oxo-1,4,5,6-tetrahydro-pyridine-3-carboxylic acid [4-fluoro-2-methyl-5-(2-methyl-3-oxo-2,3-dihydro-pyridazin-4-yl)-phenyl]-amide]	7.864
CCn1c(=O)cnn(-c2ccc(C)c(NC(=O)C3=CN(C)C(=O)C[C@H]3c3ccc(F)cc3)c2)c1=O [Compound 131, (S)-4-(4-Fluoro-phenyl)-1-methyl-6-oxo-1,4,5,6-tetrahydro-pyridine-3-carboxylic acid [5-(4-ethyl-3,5-dioxo-4,5-dihydro-3H-[1,2,4]triazin-2-yl)-2-methyl-phenyl]-amide]	7.42
Cc1ccc(-n2ccc(=O)n(C)c2=O)cc1NC(=O)C1=CN(C)C(=O)C[C@H]1c1ccc(F)cc1 [Compound 132, (S)-4-(4-Fluoro-phenyl)-1-methyl-6-oxo-1,4,5,6-tetrahydro-pyridine-3-carboxylic acid [2-methyl-5-(3-methyl-2,4-dioxo-3,4-dihydro-2H-pyrimidin-1-yl)-phenyl]-amide]	6.015
Cc1ccc(-n2ccc(=O)n(C)c2=O)cc1NC(=O)C1=CNC(=O)C[C@H]1c1ccc(F)cc1 [Compound 133, (S)-4-(4-Fluoro-phenyl)-6-oxo-1,4,5,6-tetrahydro-pyridine-3-carboxylic acid [2-methyl-5-(3-methyl-2,4-dioxo-3,4-dihydro-2H-pyrimidin-1-yl)-phenyl]-amide]	7.24
Cc1ccc(-c2ccc(=O)n(CCO)n2)cc1NC(=O)C1=CN(C)C(=O)C[C@H]1c1ccc(F)cc1 [Compound 134, (S)-4-(4-Fluoro-phenyl)-1-methyl-6-oxo-1,4,5,6-tetrahydro-pyridine-3-carboxylic acid {5-[1-(2-hydroxy-ethyl)-6-oxo-1,6-dihydro-pyridazin-3-yl]-2-methyl-phenyl}-amide]	6.42
Cc1cnn(-c2ccc(C)c(NC(=O)C3=CNC(=O)C[C@H]3c3ccc(F)cc3)c2)c(=O)c1 [Compound 135, (S)-4-(4-Fluoro-phenyl)-6-oxo-1,4,5,6-tetrahydro-pyridine-3-carboxylic acid [2-methyl-5-(4-methyl-6-oxo-6H-pyridazin-1-yl)-phenyl]-amide]	7.655
Cc1cnn(-c2ccc(C)c(NC(=O)C3=CN(C)C(=O)C[C@H]3c3ccc(F)cc3)c2)c(=O)c1 [Compound 136, (S)-4-(4-Fluoro-phenyl)-1-methyl-6-oxo-1,4,5,6-tetrahydro-pyridine-3-carboxylic acid [2-methyl-5-(4-methyl-6-oxo-6H-pyridazin-1-yl)-phenyl]-amide]	7.515
Cc1cc(-c2ccc(F)c(NC(=O)C3=CN(C)C(=O)C[C@H]3c3ccc(F)cc3)c2)n[nH]1 [Compound 137, (S)-4-(4-Fluoro-phenyl)-1-methyl-6-oxo-1,4,5,6-tetrahydro-pyridine-3-carboxylic acid [2-fluoro-5-(5-methyl-1H-pyrazin-3-yl)-phenyl]-amide]	6.39
Cc1cc(F)c(-c2cccn(C)c2=O)cc1NC(=O)C1=CN(C)C(=O)C[C@H]1c1ccc(F)cc1 [Compound 139, (S)-4-(4-Fluoro-phenyl)-1-methyl-6-oxo-1,4,5,6-tetrahydro-pyridine-3-carboxylic acid [4-fluoro-2-methyl-5-(1-methyl-2-oxo-1,2-dihydro-pyridin-3-yl)-phenyl]-amide]	7.83
Cc1ccc(=O)n(-c2ccc(C)c(NC(=O)C3=CN(C)C(=O)C[C@H]3c3ccc(F)cc3)c2)c1 [Compound 140, (S)-4-(4-Fluoro-phenyl)-1-methyl-6-oxo-1,4,5,6-tetrahydro-pyridine-3-carboxylic acid [2-methyl-5-(5-methyl-2-oxo-2H-pyridin-1-yl)-phenyl]-amide]	7.18
CN1C=C(C(=O)Nc2cc(-c3ccnn(C)c3=O)ccc2F)[C@H](c2ccc(F)cc2)CC1=O [Compound 141, (S)-4-(4-Fluoro-phenyl)-1-methyl-6-oxo-1,4,5,6-tetrahydro-pyridine-3-carboxylic acid [2-fluoro-5-(2-methyl-3-oxo-2,3-dihydro-pyridazin-4-yl)-phenyl]-amide]	7.36
Cn1nccc(-c2ccc(F)c(NC(=O)C3=CNC(=O)C[C@H]3c3ccc(F)cc3)c2)c1=O [Compound 142, (S)-4-(4-Fluoro-phenyl)-6-oxo-1,4,5,6-tetrahydro-pyridine-3-carboxylic acid [2-fluoro-5-(2-methyl-3-oxo-2,3-dihydro-pyridazin-4-yl)-phenyl]-amide]	8.2
Cc1cnn(-c2cc(NC(=O)C3=CNC(=O)C[C@H]3c3ccc(F)cc3)c(C)cc2F)c(=O)c1 [Compound 143, (S)-4-(4-Fluoro-phenyl)-6-oxo-1,4,5,6-tetrahydro-pyridine-3-carboxylic acid [4-fluoro-2-methyl-5-(4-methyl-6-oxo-6H-pyridazin-1-yl)-phenyl]-amide]	7.455
Cc1cnn(-c2cc(NC(=O)C3=CN(C)C(=O)C[C@H]3c3ccc(F)cc3)c(C)cc2F)c(=O)c1 [Compound 145, (S)-4-(4-Fluoro-phenyl)-1-methyl-6-oxo-1,4,5,6-tetrahydro-pyridine-3-carboxylic acid [4-fluoro-2-methyl-5-(4-methyl-6-oxo-6H-pyridazin-1-yl)-phenyl]-amide]	7.265
CN1C=C(C(=O)Nc2cc(-n3ncccc3=O)ccc2F)[C@H](c2ccc(F)cc2)CC1=O [Compound 146, (S)-4-(4-Fluoro-phenyl)-1-methyl-6-oxo-1,4,5,6-tetrahydro-pyridine-3-carboxylic acid [2-fluoro-5-(6-oxo-6H-pyridazin-1-yl)-phenyl]-amide]	5.74
Cc1cc(F)c(-c2cc(C)n(CCO)n2)cc1NC(=O)C1=CN(C)C(=O)C[C@H]1c1ccc(F)cc1 [Compound 148, (S)-4-(4-Fluoro-phenyl)-1-methyl-6-oxo-1,4,5,6-tetrahydro-pyridine-3-carboxylic acid {4-fluoro-5-[1-(2-hydroxy-ethyl)-5-methyl-1H-pyrazol-3-yl]-2-methyl-phenyl}-amide]	7.41
